Experiments:
SKOV3 cells = experiment: Wound-healing assay, SKOV3; format: cell-based; conditions: 8 μM, 24 hours
Protocol: Wound Healing was Performed in 12-Well Plates Coated with 1 μg/Ml FN (Sigma, #1141) overnight at 4° C. OC cells were plated at a density of 2×10^5 cells/well in media containing 2% FBS. Under these conditions cells adhered on substrate, but cell proliferation was minimized. After 16 hours, the cell monolayer was scraped in straight line. Cell debris was removed and serum free media containing selected SMIs or control was replenished. For consistency during image acquisition, a reference point was marked close to the scratch mark and the plate was imaged under phase-contrast microscope at 0, 2, 6, 12 and 24 hours. Wound closure was assessed as the distance between the wound edges, calculated and quantified using the Image Pro-Express software. The percentage of wound closure was evaluated using the formula […]. The rate of migration (μm/h) of OC cells into the wound space was evaluated as the distance difference between wound edges at 0 and 24 h, divided by 24. The experiments were performed in duplicates.

[1] = tested on: OVCAR433 cells adhesion onto LP9 monolayers; experiment: Cell adhesion to LP9 mesothelial monolayers, OVCAR433; format: cell-based; conditions: at concentrations >10 μM
Protocol: LP9 mesothelial cells added to clear-bottom 96-well plate at 12,000 cells/well were grown to confluency over 48 hours (h). OC cells were labeled with calcein AM and seeded at a density of 4×10^4 cells to monolayers of mesothelial cells and incubated for 1 h. Non-adherent cells were removed by washing with PBS.

Protocol for Tolerability in vivo: Three doses were administered 25, 50 and 100 mg/kg to cohorts of 3 mice. A) Average weights, B) average white blood cell counts (WBC), C) average hemoglobin (Hgb) and D) average platelet (Plt) counts measured 1 week after administration at the 3 doses (n=3).

Cc1cc(N(C)C)nc(Nc2ccc(NC(=O)Cc3ccccc3)cc2)n1 [MT-4]
motility (scratch repair) (SKOV3 cells): inhibited
OVCAR433 adhesion to the LP9 layer [1]: dose-dependent inhibitory effect

COc1ccc(Cl)cc1C(=O)Nc1ccc(Nc2nc(C)cc(N(C)C)n2)cc1 [TG53]
hematological toxicity (Tolerability in vivo; WBC, Hgb, Plt 1 week after administration): did not induce
tolerated dose (Tolerability in vivo; doses 25, 50 and 100 mg/kg): up to 50 mg/kg

From US20210276960A1, “INHIBITORS OF TISSUE TRANSGLUTAMINASE 2 (TG2) AND USES THEREOF” (Northwestern University, priority 2020, published 2021)
